Here are results for one compound from patent US20130225508A1, “PEPTIDE CAPABLE OF BINDING TO IMMUNOGLOBULIN” (priority 2010, published 2013).

The subject of the assay is TNF-α in plasma. In words: TNF-α in plasma of adjuvant arthritis rats (ELISA). The format is in vivo, rat. The conditions noted are these: day 21 post-adjuvant. The protocol: TNF-α and IL-1β in plasma were measured in a double-point method using the TNF-α ELISA kit (Lbis® TNF-α-rat) and the IL-1β ELISA kit (Quantikine® Rat IL-1β/IL-1F2).
On day 21 post-adjuvant, the animals were subjected to autopsy, and plasma was prepared to measure IL-1β and TIN-α concentrations in plasma. In all the groups for which measurements were made, the concentration of TNF-α was below the detection limit (8 pg/mL).
(In general: An ELISA detects its analyte on a solid surface through an enzyme-linked reagent.)

On to `CN(Cc1cnc2nc(N)nc(N)c2n1)c1ccc(C(=O)N[C@@H](CCC(=O)O)C(=O)O)cc1` [Methotrexate], for which the “Concentrations of TNF-α in plasma” value runs as follows: (0.15 mg/kg oral from day 10) “N.D (N.D.: below detection limit)”; (0.15 mg/kg oral, pre-administered group) “N.D (N.D.: below detection limit)”.
